# Data taken from publication PMC9240354, “Pharmacokinetics, Pharmacodynamics and Antiviral Efficacy of the MEK Inhibitor Zapnometinib in Animal Models and in Humans” (Frontiers in Pharmacology, 2022).
# What was measured:
# [1] = system: MEK; assay: MEK inhibition in PBMCs of treated Syrian hamsters (pERK/ERK, Wes); format: in vivo; conditions: hamster PBMCs
# Protocol: (§1) PBMCs were isolated from the same blood samples (30 µl mouse blood, 50 µl hamster blood, or 1 ml dog blood) used for pharmacokinetic analysis. After plasma separation as described in the section above (Blood sampling and preparation of plasma samples), the remaining red blood cells were lysed by adding 1 volume of red blood cell (RBC) lysis buffer (Thermo Fisher Scientific, Waltham, MA, United States) (300 µl for mice, 500 µl for hamster, and 10 ml for dogs). The samples were incubated for 15 min at RT and centrifuged at 500 x g for 5 min (RT). The supernatant was removed completely, and the pellet was washed twice with PBS. The PBMC cell pellets were store at −80°C until further analysis. PBMCs of 8 ml human blood were isolated using CPT^TM tubes. After a 20-min centrifugation at 1,650 x g at room temperature, the plasma was collected for PK analysis as described in the section above (Blood sampling and preparation of plasma samples). […]
# The pharmacodynamic assessment was performed using the Wes™ (Simple Western™) system which uses capillary electrophoresis to separate, identify and quantify proteins of interest. A chemiluminescence signal for each identified protein is detected and the area under the peak is calculated, which is then used for quantification. The 0.1x Sample Buffer, 400 mM dithiothreitol (DTT) solution, 5x Fluorescence Master Mix, and the Biotinylated Ladder (ProteinSimple®, Abingdon, Oxford, United Kingdom) were prepared according to manufacturer’s instructions. […] Then the 5x Fluorescence Master Mix in DTT (ProteinSimple®) was added, and the samples were denatured for 5 min at 95°C, loaded onto the assay plate and analyzed using specific antibodies. […] The anti-rabbit secondary antibody (Cat# DM-001) was also purchased from ProteinSimple® and was ready to use. Data were analyzed with Compass software for simple western (ProteinSimple®). Using the ratio of pERK to ERK of each sample compared to control (pre-dose), the level of ERK phosphorylation was calculated and then converted into the percentage level of MEK inhibition.
# [2] = plasma binding; conditions: stated in discussion, no data shown
# [3] = system: MEK; assay: MEK inhibition in PBMCs of treated beagle dogs (pERK/ERK, Wes); format: in vivo; conditions: formulation 3, plasma concentrations until Cmax vs ERK phosphorylation in PBMCs
# Protocol: as §1, with “analysis.” for “analysis. PBMCs of 8 ml human blood were isolated using CPT^TM tubes. After a 20-min centrifugation at 1,650 x g at room temperature, the plasma was collected for PK analysis as described in the section above (Blood sampling and preparation of plasma samples).”
# The pharmacodynamic assessment was performed using the Wes™ (Simple Western™) system which uses capillary electrophoresis to separate, identify and quantify proteins of interest. A chemiluminescence signal for each identified protein is detected and the area under the peak is calculated, which is then used for quantification. The 0.1x Sample Buffer, 400 mM dithiothreitol (DTT) solution, 5x Fluorescence Master Mix, and the Biotinylated Ladder (ProteinSimple®, Abingdon, Oxford, United Kingdom) were prepared according to manufacturer’s instructions. […] The anti-rabbit secondary antibody (Cat# DM-001) was also purchased from ProteinSimple® and was ready to use. […]
# [4] = pharmacokinetics, summary regardless of species; format: in vivo, mice, hamsters, dogs, human; conditions: regardless of species or formulation
# Protocol: Pharmacokinetic analysis of the mouse plasma samples was performed using standard procedures at Prolytic GmbH (Frankfurt, Germany). Hamster plasma samples were analyzed at Synovo GmbH (Tuebingen, Germany) using HPLC MS/MS (Agilent 1260 HPLC with Sciex API4500) with linear response for plasma concentrations between 15 nM and 33 µM (6.1 ng/ml to 13.5 μg/ml). Pharmacokinetic analyses of the dog plasma samples were performed at Pharmascience Inc. (Montreal, Canada) using an HPLC MS/MS method for the determination of zapnometinib plasma concentrations. The validated calibration range for this assay is from 0.6 μg/ml to […] for which all validation requirements were successfully evaluated. Regressions, calibration standard, quality control sample, animal sample result tables, acquisition methods and chromatograms were generated by Applied Biosystems Analyst^TM software, version 1.6.2. Plasma concentrations of zapnometinib of the human samples were determined at SGS Life Sciences (Bioanalysis Department, Wavre, Belgium) using a validated HPLC MS/MS method with a lower limit of quantification of 10 ng/ml for the analyte zapnometinib. Statistical analysis was performed by SGS (demography and safety analyses, exposure, and compliance) using SAS® version 9.4 (SAS Institute Inc., Cary, NC, United States).
structure (smiles),measurement,setting,value
"O=C(O)c1ccc(F)c(F)c1Nc1ccc(I)cc1Cl [zapnometinib, 2-(2-Chloro-4-Iodophenylamino)-N-3,4-Difluoro benzoic acid]",MEK inhibition 12 h after the first treatment,[1]; 15 mg/kg BID,25 ± 15%
same,MEK inhibition at 24 h,"[1]; 15 mg/kg BID, 15 mg/kg",43 ± 8%
same,MEK inhibition at 24 h,[1]; 60 mg/kg OD,55 ± 26%
same,plasma binding,[2],high plasma binding
same,IC50 (plasma concentration reducing ERK phosphorylation by 50% compared to pre-dose),[3],12.5 µg/mL
same,time to maximum plasma concentration (Cmax),[4],2 to 4 h
